In patent US20240368668A1, “SUBSTRATES AND BIOMARKERS OF ADAMTS7” (The Broad Institute, Inc., priority 2021, published 2024) one finds logFC.mWT.over.mEQ data, which are given here for 19 substances.

Square brackets hold non-standard residues; d marks the D form. Ends that are not written are not given here. Met(O) = CS(=O)CC[C@H](N)C(=O)O

This assay deals with mouse ADAMTS7. As to the kind of experiment: TMT10 TAILS N-terminomics, HUVEC experiment (process replicates, trypsin/AspN digest). As to conditions: HUVEC TAILS HC; log fold change of N-terminal peptide, Ad-mADAMTS7 WT over EQ. The class given is cell-based, human. In a few lines: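 Full-length mouse ADAMTS7 (WT or E373Q mutant, C-terminal 3xFLAG) or luciferase was transduced via adenovirus, 50 MOI, into HCA-SMC (SMC1, SMC2) or HUVEC. SMC1: pooled media, technical triplicates 400 ug; SMC2: process triplicates 300 ug; HUVEC: process triplicates 200 ug, bFGF2 10 ng/ml.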
Turning to “ASMT_321 (LSSAGFR; listed as Homo sapiens)”, the logFC.mWT.over.mEQ was 2.56.
“BICD1_280 (NNDDKMNGHIHGPLVKLNGDYR; listed as Homo sapiens)” yielded a logFC.mWT.over.mEQ of 1.31.
“CLU_267 (FQHPPTEFIR; listed as Homo sapiens)” gave a logFC.mWT.over.mEQ of 1.64.
Under “CTGF_173 (TVVGPALAAYR; listed as Homo sapiens)” stands 3.39; under “CTGF_174 (VVGPALAAYR; listed as Homo sapiens)”, 2.44; under “FN1_1624 (LVQTAVTTIPAPT; listed as Homo sapiens)”, 1.56.
Under “FN1_1743 (WESPQGQVSR; listed as Homo sapiens)” stands 3.05; under “LTBP2_129 (QQQPAPR; listed as Homo sapiens)”, 5.32.
“LTBP2_253 (GEGTLAR; listed as Homo sapiens)” returned a logFC.mWT.over.mEQ of 2.99.
In turn, “LTBP3_164 (LSTGALPPLAPEG; listed as Homo sapiens)” showed a logFC.mWT.over.mEQ of 2.21.
In turn, “LTBP3_205 (HAAFLVPLGPGQISA; listed as Homo sapiens)” displayed a logFC.mWT.over.mEQ of 2.54.
Under “LTBP3_221 (VQAPPPVVNVR; listed as Homo sapiens)” stands 3.11; under “MCFD2_55 (HLEGVINKPEA; listed as Homo sapiens)”, 0.99.
Under “PSAP_301 (LVEPIKKH; listed as Homo sapiens)” stands 2.44; under “PTBP1_376 (AAAAAGR; listed as Homo sapiens)”, 1.06.
The substance “PZP_578 (HAHLQVAAAPQSLCALR; listed as Homo sapiens)” came in with a logFC.mWT.over.mEQ of 2.45.
Substance “THBS1_630 (FGQGVEHATANK; listed as Homo sapiens)” came in with a logFC.mWT.over.mEQ of 2.28.
For “UQCRH_76 (HGSPNNSERAMRAVGE[Met(O)]CKGPGAAR; listed as Homo sapiens)”, the logFC.mWT.over.mEQ was determined as 1.38.
Turning to “ZYX_244 (PVSLANTQPR; listed as Homo sapiens)”, the logFC.mWT.over.mEQ was 1.02.
